Reference: ChEMBL document CHEMBL1149337, “Design and synthesis of potent and selective 1,3,4-trisubstituted-2-oxopiperazine based melanocortin-4 receptor agonists” (Bioorg Med Chem Lett, 2006)

Assays:
Melanocortin receptor 3 [1] = target: T1, Melanocortin receptor 3 (Homo sapiens, UniProt P41968); experiment: Agonist activity at human MC3R; assay type: functional
[2] = target: T2, Melanocyte-stimulating hormone receptor (Homo sapiens, UniProt Q01726); experiment: Binding affinity to human MC1R
Melanocortin receptor 4 [3] = target: T3, Melanocortin receptor 4 (Homo sapiens, UniProt P32245); experiment: Agonist activity at human MC4R; assay type: functional
Melanocortin receptor 4 [4] = target: T3, Melanocortin receptor 4; experiment: Binding affinity to human MC4R
[5] = target: T2, Melanocyte-stimulating hormone receptor; experiment: Agonist activity at human MC1R; assay type: functional
Melanocortin receptor 3 [6] = target: T1, Melanocortin receptor 3; experiment: Binding affinity to human MC3R
[7] = target: Melanocortin receptor (M3 and M4) (Homo sapiens) (UniProt P32245+P41968); experiment: Selectivity for human MC4R over MC3R; assay type: protein assay
[8] = target: Melanocortin receptor (M1 and M4) (Homo sapiens) (UniProt P32245+Q01726); experiment: Selectivity for human MC4R over MC1R; assay type: protein assay

T3 sequence (P32245 whole entry): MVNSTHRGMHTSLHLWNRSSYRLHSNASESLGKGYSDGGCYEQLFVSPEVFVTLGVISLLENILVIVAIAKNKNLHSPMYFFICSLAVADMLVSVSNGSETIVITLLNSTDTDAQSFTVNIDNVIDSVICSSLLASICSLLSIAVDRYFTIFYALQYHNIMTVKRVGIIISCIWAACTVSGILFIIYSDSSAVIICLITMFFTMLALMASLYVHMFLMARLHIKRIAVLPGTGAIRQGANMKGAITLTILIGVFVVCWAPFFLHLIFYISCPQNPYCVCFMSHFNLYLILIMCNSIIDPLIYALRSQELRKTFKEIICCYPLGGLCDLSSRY
T1 sequence (P41968 whole entry): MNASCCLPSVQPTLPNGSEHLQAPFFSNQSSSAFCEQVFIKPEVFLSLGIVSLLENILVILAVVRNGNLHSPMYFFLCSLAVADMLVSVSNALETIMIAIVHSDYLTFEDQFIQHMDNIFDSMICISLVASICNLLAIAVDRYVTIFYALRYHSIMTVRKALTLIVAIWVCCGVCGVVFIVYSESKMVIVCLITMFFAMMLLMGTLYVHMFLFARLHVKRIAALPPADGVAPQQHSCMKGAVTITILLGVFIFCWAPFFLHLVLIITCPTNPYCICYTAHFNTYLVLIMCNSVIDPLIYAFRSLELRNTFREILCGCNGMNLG
T2 sequence (Q01726 whole entry): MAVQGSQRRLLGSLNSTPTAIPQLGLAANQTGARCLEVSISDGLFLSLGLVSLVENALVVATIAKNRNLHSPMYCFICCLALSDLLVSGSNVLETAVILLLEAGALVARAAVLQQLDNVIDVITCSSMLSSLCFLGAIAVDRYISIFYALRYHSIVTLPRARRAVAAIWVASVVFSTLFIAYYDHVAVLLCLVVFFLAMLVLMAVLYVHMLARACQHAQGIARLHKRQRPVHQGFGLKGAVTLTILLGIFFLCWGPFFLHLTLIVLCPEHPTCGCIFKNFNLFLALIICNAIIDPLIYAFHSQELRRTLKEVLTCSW

Compound | EC50 (Melanocortin receptor 3 [1]) | Ki [2] | EC50 (Melanocortin receptor 4 [3]) | Ki (Melanocortin receptor 4 [4]) | EC50 [5] | Ki (Melanocortin receptor 3 [6]) | Selectivity ratio [7] | Selectivity ratio [8]
CNC(=O)[C@H](Cc1ccc2ccccc2c1)N1CCN(C(=O)[C@@H](Cc2ccccc2)NC(=O)[C@H](Cc2ccc(O)cc2)NC(C)=O)[C@@H](CCCN=C(N)N)C1=O | 1 nM | 1 nM | 0.2 nM | 0.6 nM | 1.7 nM | 1 nM |  | 
CNC(=O)[C@H](Cc1ccc2ccccc2c1)N1CCN(C(=O)[C@@H](Cc2ccc(F)cc2)NC(=O)[C@H](Cc2cnc[nH]2)NC(C)=O)[C@@H](CCCN=C(N)N)C1=O | 6 nM | 2 nM | 2 nM | 5 nM | 1.7 nM | 35 nM |  | 
CNC(=O)[C@H](Cc1ccc2ccccc2c1)NC(=O)[C@H](CCCN=C(N)N)NC(=O)[C@H](N)Cc1ccc(F)cc1 | 20000 nM | 4060 nM | 140 nM | 225 nM | 21700 nM | 1140 nM |  | 
CNC(=O)[C@H](Cc1ccc2ccccc2c1)N1CCN(C(=O)[C@@H](Cc2ccc(F)cc2)NC(=O)[C@H](Cc2ccc(O)cc2)NC(C)=O)[C@@H](CCCN=C(N)N)C1=O | 2 nM | 14 nM | 8.7 nM | 0.4 nM | 30 nM | 1.1 nM |  | 
CNC(=O)[C@H](Cc1ccc2ccccc2c1)N1CCN(C(=O)[C@@H](Cc2ccc(F)cc2)NC(=O)C2Cc3ccccc3CN2)[C@@H](CCCN=C(N)N)C1=O (stereo partly specified) | 163 nM | 313 nM | 1.6 nM | 6 nM | 104 nM | 352 nM |  | 
CNC(=O)[C@H](Cc1ccc2ccccc2c1)N1CCN(C(=O)[C@@H](Cc2ccccc2)NC(=O)[C@H](Cc2c[nH]cn2)NC(C)=O)[C@@H](CCCN=C(N)N)C1=O | 0.4 nM | 0.4 nM | 0.3 nM | 0.8 nM | 0.07 nM | 1 nM |  | 

Further lines, results first:

EC50 (Melanocortin receptor 3 [1]) | Ki [2] | EC50 (Melanocortin receptor 4 [3]) | Ki (Melanocortin receptor 4 [4]) | EC50 [5] | Ki (Melanocortin receptor 3 [6]) | Selectivity ratio [7] | Selectivity ratio [8] | Compound
10 nM | 18 nM | 0.5 nM | 1.3 nM | 2.3 nM | 7 nM |  |  | CNC(=O)[C@H](Cc1ccc2ccccc2c1)N1CCN(C(=O)[C@@H](Cc2ccc(F)cc2)NC(C)=O)[C@@H](CCCN=C(N)N)C1=O
0.5 nM | 2 nM | 0.34 nM | 1.1 nM | 0.37 nM | 3.3 nM |  |  | CNC(=O)[C@H](Cc1ccc2ccccc2c1)N1CCN(C(=O)[C@@H](Cc2ccc(F)cc2)NC(=O)[C@H](CCC(N)=O)NC(C)=O)[C@@H](CCCN=C(N)N)C1=O
 | 2130 nM | 12 nM | 261 nM |  | 461 nM |  |  | CNC(=O)[C@H](Cc1ccc2ccccc2c1)N1CCN(C(=O)[C@H](N)Cc2ccc(F)cc2)[C@@H](CCCNC(N)=O)C1=O
41 nM | 659 nM | 1.7 nM | 5.7 nM | 526 nM | 239 nM | 42 | 116 | CNC(=O)[C@H](Cc1ccc2ccccc2c1)N1CCN(C(=O)[C@H](N)Cc2ccccc2)[C@@H](CCCN=C(N)N)C1=O
142 nM | 958 nM | 9 nM | 5.3 nM | 1390 nM | 206 nM |  |  | CNC(=O)[C@H](Cc1ccc2ccccc2c1)N1CCN(C(=O)CCc2ccc(F)cc2)[C@@H](CCCN=C(N)N)C1=O
 | 21700 nM | 18 nM | 365 nM |  | 6110 nM |  |  | CNC(=O)[C@H](Cc1ccc2ccccc2c1)N1CCN(C(=O)[C@H](N)Cc2ccc(F)cc2)[C@@H](CCNC(N)=O)C1=O
37 nM | 366 nM | 1.6 nM | 7 nM | 317 nM | 75 nM |  |  | CNC(=O)[C@H](Cc1ccc2ccccc2c1)N1CCN(C(=O)[C@H](N)Cc2ccc(F)cc2)[C@@H](CCCN=C(N)N)C1=O
